Measured values: PubChem BioAssay (NCI)
“And” between values parts separate entries of the source, which are not always exact repeats. Identical values can stand only once.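 1) Cells in 96-well plates. 2) Compound, 48 h, 5 concentrations. 3) Linear interpolation between surrounding doses. 4) Unreached endpoint = highest concentration. Abbreviation: GI50, concentration required for 50% inhibition of growth. At the TGI there is no net growth.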

Assays:
Test in all cases: inhibition of tumour cell growth, NCI panel, 48 h
HCT-15 colon = test system: HCT-15 colon
SK-MEL-28 melanoma = test system: SK-MEL-28 melanoma
MDA-MB-435 = test system: MDA-MB-435
786-0 renal = test system: 786-0 renal
NCI-H23 lung = test system: NCI-H23 lung
HOP-62 NSCLC = test system: HOP-62 NSCLC
NCI-H522 lung = test system: NCI-H522 lung
DU-145 prostate = test system: DU-145 prostate
SK-MEL-5 melanoma = test system: SK-MEL-5 melanoma
PC-3 prostate = test system: PC-3 prostate

Structure (SMILES) | GI50 (HCT-15 colon) | TGI (HCT-15 colon) | GI50 (SK-MEL-28 melanoma) | TGI (SK-MEL-28 melanoma) | GI50 (MDA-MB-435) | TGI (MDA-MB-435) | GI50 (786-0 renal) | TGI (786-0 renal) | GI50 (NCI-H23 lung) | TGI (NCI-H23 lung) | GI50 (HOP-62 NSCLC) | TGI (HOP-62 NSCLC) | GI50 (NCI-H522 lung) | TGI (NCI-H522 lung) | GI50 (DU-145 prostate) | TGI (DU-145 prostate) | GI50 (SK-MEL-5 melanoma) | TGI (SK-MEL-5 melanoma) | GI50 (PC-3 prostate) | TGI (PC-3 prostate)
CC[C@H](C)[C@H](NC(=O)CN(C)C)C(=O)N(C)[C@H](C[C@@H](OC(C)=O)c1nc(C(=O)NC23CC(C(=O)OC)(C2)C3)cs1)C(C)C | 1.01 µM | > 25 µM | 3.06 µM | > 25 µM | 0.0461 µM | 0.298 µM | 0.741 µM | > 25 µM | 1.22 µM | > 25 µM | 2.97 µM | > 25 µM | 0.0511 µM | > 7.88 µM | 0.183 µM | > 25 µM | 0.572 µM | 4 µM | 0.804 µM | > 25 µM
O=C(Nc1nc2ccccc2s1)Nc1ccc([N+](=O)[O-])cc1Cl | 3.05 µM | 13 µM | 6.25 µM | 20.1 µM | 3.56 µM | 14.2 µM | 1.92 µM | 3.7 µM | 3.49 µM | 14.6 µM | 7.61 µM | 16.6 µM | 2.74 µM | 10.2 µM | 3.08 µM | 7.74 µM | 7.3 µM | 22.1 µM | 4.26 µM | > 28.8 µM
COc1cc2c3c(n(C)c(=O)c2cc1OC)-c1ccc(C#N)cc1C3=O | > 100 µM | > 100 µM | > 100 µM | > 100 µM | > 100 µM | > 100 µM | > 100 µM | > 100 µM | > 100 µM | > 100 µM | 74.1 µM | > 100 µM | 52 µM | > 100 µM | > 100 µM | > 100 µM | > 100 µM | > 100 µM | > 100 µM | > 100 µM
C=C1C(=O)OC2/C=C(/C)C(OC(C)=O)C/C=C(\C)C(OC(=O)C3(C)OC3C)C(O)C12 (stereo not drawn) |  | > 100 µM |  | > 100 µM |  | > 100 µM |  | > 100 µM |  | > 100 µM |  | > 100 µM |  | 28.6 µM |  | > 100 µM |  | > 100 µM |  | > 100 µM
O=C1Cc2cc(C(=O)NC3C[C@H]4CC[C@@H](C3)N4S(=O)(=O)CC3CCN(CCCC(F)(F)F)CC3)c(Cl)cc2N1 (stereo partly drawn) | > 100 µM | > 100 µM | > 100 µM | > 100 µM | > 100 µM | > 100 µM | > 100 µM | > 100 µM | > 100 µM | > 100 µM | > 100 µM | > 100 µM | > 100 µM | > 100 µM | > 100 µM | > 100 µM | > 100 µM | > 100 µM | > 100 µM | > 100 µM
CCCCCCCCCCCCCC[C@@H](O)[C@H]1CC[C@H]([C@H]2CC[C@H]([C@H](O)CCCCCC[C@@H](O)CC3=C[C@H](C)OC3=O)O2)O1 | 2.42 µM | 5.38 µM and > 25 µM | 2.9 µM | > 25 µM |  | > 25 µM | 4.31 µM | > 25 µM |  | > 25 µM | 2.74 µM | > 25 µM |  | > 25 µM | > 25 µM | > 25 µM | 0.717 µM | 2.52 µM and > 25 µM | 2.13 µM | 7.31 µM and > 25 µM
CN1C(=O)C2(c3ccccc31)N(c1ccc(Cl)cc1)C(=O)C2(c1ccccc1)c1ccccc1 (stereo not drawn) | > 100 µM | > 100 µM | > 100 µM | > 100 µM | > 100 µM | > 100 µM | > 100 µM | > 100 µM | 64.7 µM | > 100 µM | > 100 µM | > 100 µM | 10 µM | > 100 µM | 99 µM | > 100 µM | 54.5 µM | > 100 µM | 5.63 µM | > 100 µM
COC(=O)[C@H]1CCCN1C(=O)[C@H]1CCCN1C(=O)[C@H](Cc1c[nH]c2ccccc12)NC(=S)Nc1cc(C(F)(F)F)cc(C(F)(F)F)c1 | 6.26 µM | > 100 µM | 5.83 µM | > 100 µM | 5.6 µM | > 100 µM | 13.8 µM | 83 µM | 7.22 µM | > 100 µM | 8.28 µM | > 100 µM | 4.49 µM | 77.2 µM | 6.53 µM | > 100 µM | 5.14 µM | > 100 µM | 3.47 µM | > 100 µM
O=C(CN1C(=O)S/C(=C\C(Cl)=C\c2ccccc2)C1=O)NC1C=CS(=O)(=O)C1 (stereo not drawn) | 0.378 µM | 3.47 µM | 1.81 µM | 3.9 µM | 1.55 µM | 3.41 µM | 1.8 µM | 4.37 µM | 2.09 µM | 7.17 µM | 2.97 µM | 11.1 µM | 0.299 µM | 1.33 µM | 1.83 µM | 4.27 µM | 1.72 µM | 3.22 µM | 2.15 µM | 7.33 µM
Cc1cc(Cl)nc(N(CCCNc2ccnc3cc(Cl)ccc23)Cc2ccco2)n1 | 1.99 µM | 7.61 µM | 2.38 µM | 6.37 µM | 2.31 µM | 7.17 µM | 1.91 µM | 4.61 µM | 1.98 µM | 7.68 µM | 1.59 µM | 5.65 µM | 2.93 µM | 12.4 µM | 3.48 µM | 14.7 µM | 1.54 µM | 3.01 µM | 1.87 µM | 6 µM
COc1ccc(N(C)c2nc(N)nc3sc4c(c23)CCCC4)cc1 | < 0.01 µM | 13 µM | 4.3 µM | 23.4 µM | < 0.01 µM |  | < 0.01 µM | 13.2 µM | < 0.01 µM | 20.8 µM | 0.275 µM | 18.8 µM | < 0.01 µM |  | < 0.0166 µM | 11.2 µM | < 0.01 µM | 0.505 µM | < 0.01 µM | 15.6 µM
COc1cc2cc(Oc3ccc(NC(=O)Nc4ccc(Cl)c(Cl)c4)cc3)c(C)nc2cc1OC | 3.56 µM | > 100 µM | 3.77 µM | 14.7 µM | 3.09 µM | 16.8 µM | 3.64 µM | 17.7 µM | 3.36 µM | 15.9 µM | 3.55 µM | 11.9 µM | 1.74 µM | 8.43 µM | 4.27 µM | 17.1 µM | 2.58 µM | 8.09 µM | 1.53 µM | 5.13 µM
CSc1ccc2c(c1)C(N1CCN(C)CC1)Cc1ccccc1S2 (stereo not drawn) | 2.83 µM | 16.4 µM and 7.41 µM | 1.64 µM | 3.06 µM | 1.78 µM | 6.47 µM and 3.46 µM | 1.77 µM | 19.8 µM and 3.36 µM | 3.22 µM | 28.8 µM and 11.8 µM | 1.8 µM | 23.6 µM and 3.29 µM | 1.76 µM | 10.2 µM and 3.29 µM | 2.04 µM | 31.4 µM and 4.38 µM | 1.56 µM | 3.53 µM and 2.9 µM | 1.89 µM | 17.6 µM and 6.51 µM
CN1CSC(=S)N(Cc2ccccc2)C1 | 4.74 µM | 22 µM | 18.4 µM | 41 µM | 3.58 µM | 19.8 µM | 12 µM | 44.2 µM | 14.1 µM | 36.6 µM | 18.6 µM | > 100 µM | 1.89 µM | 5.65 µM | 2.05 µM | 6.21 µM | 13.1 µM | 26.1 µM | 42.4 µM | > 100 µM
COc1cccc(/C=C2\COc3ccc(-c4ccccc4)cc3C2=O)c1 | 1.78 µM | 4.72 µM | 1.91 µM | 3.62 µM | 3.21 µM | > 100 µM | 2.63 µM | 6.45 µM | 3.14 µM | 10 µM | 3.91 µM | 9.58 µM | 1.86 µM | 4.06 µM | 2.05 µM | 5.43 µM | 1.67 µM | 3.55 µM | 2.87 µM | 16.2 µM
N#CC1c2ccccc2C=CN1C(=O)N(c1ccccc1)c1ccccc1 (stereo not drawn) | 2.51 µM | 6.93 µM | 2.43 µM | 5.84 µM | 1.74 µM | 3.81 µM | 4.32 µM | 15.2 µM | 4.09 µM | 19.3 µM | 13.6 µM | 26.7 µM | 1.78 µM | 3.33 µM | 3.04 µM | 9.36 µM | 4.03 µM | 14.8 µM | 9.82 µM | 25.3 µM
N=c1c2c(=N)n3c(nc2nc2n1-c1ccccc1Sc1ccccc1-2)sc1cc(Cl)ccc13 | 2.14 µM | > 100 µM | 2.65 µM | 13.6 µM | 3.11 µM | > 100 µM | 3.64 µM | > 100 µM | 1.15 µM | 7.02 µM | 5.87 µM | 24.1 µM | 1.2 µM | 6.99 µM | 3.55 µM | > 100 µM | 1.12 µM | 4 µM | 2.64 µM | > 100 µM
CCn1c(-c2nonc2N)nc2cncc(C(=O)N3CC[C@H](N)C3)c21 | 8.29 µM | > 25 µM | > 25 µM | > 25 µM | > 25 µM | > 25 µM | > 20.4 µM | > 25 µM | > 25 µM | > 25 µM | 7.38 µM | > 25 µM | > 9.56 µM | > 25 µM | > 25 µM | > 25 µM | > 25 µM | > 25 µM | > 25 µM | > 25 µM
Cn1c(-c2c(N)n(CCCN3CCOCC3)c3nc(C#N)c(C#N)nc23)nc2ccccc21 |  | > 53.4 µM | 3.03 µM | 11.8 µM | > 100 µM | > 100 µM | 24.7 µM | > 69 µM | 27 µM | > 81.9 µM | 20.6 µM | 77.6 µM | 26.8 µM | > 100 µM | 3.68 µM | 29.2 µM |  | > 44.9 µM | 3.82 µM | > 100 µM
CN(CC(=O)N(Cc1ccc(C2CCCCC2)cc1)c1ccc(C(=O)O)cc1)S(=O)(=O)c1c(F)c(F)c(F)c(F)c1F | 1.74 µM | 3.36 µM | 1.62 µM | 3.03 µM | 1.75 µM | 3.19 µM | 2.28 µM | 5.22 µM | 1.92 µM | 3.81 µM | 2.09 µM | 4.59 µM | 1.77 µM | 3.65 µM | 1.74 µM | 3.11 µM | 1.84 µM | 3.58 µM | 2.08 µM | 3.96 µM
Cn1ncc(Cl)c1-c1cc(C(=O)N[C@H](CN)Cc2ccc(F)c(F)c2)oc1Cl | 1.16 µM and 0.662 µM | 13.8 µM and > 10 µM | 1.02 µM and 0.935 µM | 4.78 µM and 3.2 µM | 1.23 µM and 0.889 µM | 10.4 µM and > 6.54 µM | 0.0371 µM and 0.0295 µM | 3.79 µM and 2.1 µM | 5.17 µM and 2.44 µM | 19.7 µM and > 10 µM | 2.14 µM and 2.7 µM | 14 µM and > 10 µM | 4.82 µM and 2.04 µM | 16 µM and > 8.82 µM | 4.25 µM and 2.48 µM | 17.8 µM and > 10 µM | 2.15 µM and 1.48 µM | 5.8 µM and 2.87 µM | 0.263 µM and 0.133 µM | 9.07 µM and > 6.73 µM
